Results published in patent publication US20060069132A1, “Azolecarboxamide herbicides” (priority 2004, published 2006).

Experiments:
velvetleaf = test: Test B pre-/postemergence herbicide test; format: in vivo, Abutilon theophrasti
Method in brief: (§1)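 Seeds were planted and treated preemergence with compounds formulated in a non-phytotoxic solvent mixture containing surfactant, while plants at the 1- to 4-leaf stage (2 to 18 cm) received postemergence sprays. Flooded paddy plants were grown to the 2-leaf stage. After 13 to 15 days in a greenhouse, injury was visually rated 0–100 against untreated controls.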

cocklebur = test: Test B pre-/postemergence herbicide test; format: in vivo, Xanthium strumarium; settings: for Plant response rating (0 to 100 scale), Cocklebur: 0 is no effect
Method in brief: (§2)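 Greenhouse pot assay with simultaneous preemergence (treated seed) and postemergence (2–18 cm seedlings) applications of surfactant-containing, non-phytotoxic solvent formulations. Response scored visually 13–15 days later on a 0–100 scale, 100 meaning complete control.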

pigweed = test: Test B pre-/postemergence herbicide test; format: in vivo, Amaranthus retroflexus; settings: for Plant response rating (0 to 100 scale), Pigweed: 0 is no effect
Method in brief: as §1

[1] = test system: small flower umbrella sedge; test: Test B flooded paddy test; format: in vivo, Cyperus difformis; settings: 1000 g ai/ha, scale 0 to 100 (0 no effect, 100 complete control)
Method in brief: (§3)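 Greenhouse test; postemergence application to plants at 1–4 leaves (2–18 cm); paddy species at 2 leaves; evaluated visually vs controls at 13–15 days; scale 0–100 (100 = complete control).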

blackgrass = test: Test B postemergence herbicide test; format: in vivo, Alopecurus myosuroides
Method in brief: as §3

ducksalad = test: Test B flooded paddy test; format: in vivo, Heteranthera limosa; settings: 1000 g ai/ha, scale 0 to 100 (0 no effect, 100 complete control)
Method in brief: as §3

wheat = test: Test B postemergence herbicide test; format: in vivo, Triticum aestivum; design: key to Wheat plant response rating: 0 = no effect, 100 = complete control
Method in brief: (§4)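 Read-out: visual comparison with controls, scored 0 to 100, where 100 means complete control and 0 no effect. Formulated chemicals were applied postemergence to plants 2–18 cm tall (1- to 4-leaf), or to flooded-paddy plants at the 2-leaf stage, then held 13 to 15 days under glass.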

lambsquarters = test: Test B pre-/postemergence herbicide test; format: in vivo, Chenopodium album; settings: for Plant response rating (0 to 100 scale), Lambsquarters: 0 is no effect
Method in brief: as §1

giant foxtail = test: Test B pre-/postemergence herbicide test; format: in vivo, Setaria faberi; settings: for Plant response rating (0 to 100 scale), Foxtail, Giant: 0 is no effect
Method in brief: as §1

barnyardgrass [2] = test: Test B flooded paddy test; format: in vivo, Echinochloa crus-galli; settings: 1000 g ai/ha, scale 0 to 100 (0 no effect, 100 complete control)
Method in brief: as §3

wild oat = test: Test B postemergence herbicide test; format: in vivo, Avena fatua
Method in brief: as §4

corn = test: Test B pre-/postemergence herbicide test; format: in vivo, Zea mays; settings: for Plant response rating (0 to 100 scale), Corn: 0 is no effect
Method in brief: as §1

barnyardgrass [3] = test: Test B pre-/postemergence herbicide test; format: in vivo, Echinochloa crus-galli; settings: for Plant response rating (0 to 100 scale), Barnyardgrass: 0 is no effect
Method in brief: as §2

morningglory = test: Test B pre-/postemergence herbicide test; format: in vivo, Ipomoea coccinea; settings: for Plant response rating (0 to 100 scale), Morningglory: 0 is no effect
Method in brief: as §2

rice = test: Test B flooded paddy test; format: in vivo, Oryza sativa; settings: 1000 g ai/ha, scale 0 to 100 (0 no effect, 100 complete control)
Method in brief: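 Visual ratings, 0 (no effect) to 100 (complete control), made versus controls after 13–15 d greenhouse. Paddy plants treated at 2-leaf stage; postemergence plants at 1- to 4-leaf stage, 2–18 cm tall.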

[4] = Postemergence, 500 g ai/ha, scale 0 (no effect) to 100 (complete control)
[5] = postemergence, 125 g ai/ha, scale 0 to 100
[6] = 125 g ai/ha, 100 is complete control, preemergence
[7] = 125 g ai/ha, 0 = no effect, 100 = complete control, preemergence
[8] = 500 g ai/ha, visual rating, 0 = no effect, 100 = complete control, preemergence
[9] = postemergence, 125 g ai/ha, visual rating, scale 0 (no effect) to 100 (complete control)
[10] = postemergence, 500 g ai/ha, scale 0 to 100, 0 is no effect, 100 is complete control
[11] = 125 g ai/ha, visual rating, scale 0 (no effect) to 100 (complete control), postemergence

CCNC(=S)c1cccc(NC(=O)c2nn(C(C)(C)C)nc2C)c1 [Compound 420]
90: Lambsquarters plant response rating (lambsquarters; [4]) | Barnyardgrass plant response rating (barnyardgrass [2]) | Plant response rating (0 to 100 scale), Barnyardgrass (barnyardgrass [3]; [6]) | Morningglory plant response rating (morningglory; [4])
30: Velvetleaf plant response rating (velvetleaf; [4]) | Foxtail, Giant plant response rating (giant foxtail; [4]) | Oat, Wild plant response rating (wild oat; [4])
20: Velvetleaf plant response rating (velvetleaf; [5]) | Wheat plant response rating (wheat; [4]) | Foxtail, Giant plant response rating (giant foxtail; [5]) | Oat, Wild plant response rating (wild oat; [5]) | Corn plant response rating (corn; [4]) | Corn plant response rating (corn; [5]) | Barnyardgrass plant response rating (barnyardgrass [3]; Postemergence, 125 g ai/ha, scale 0 (no effect) to 100 (complete control))
50: Plant response rating (0 to 100 scale), Velvetleaf (velvetleaf; 125 g ai/ha, 0 is no effect, 100 is complete control, preemergence) | Barnyardgrass plant response rating (barnyardgrass [3]; [4]) | Plant response rating (0 to 100 scale), Morningglory (morningglory; [6])
10: Cocklebur plant response rating (cocklebur; [5]) | Blackgrass plant response rating (blackgrass; [5]) | Wheat plant response rating (wheat; [5])
80: Ducksalad plant response rating (ducksalad) | Plant response rating (0 to 100 scale), Foxtail, Giant (giant foxtail; [6]) | Morningglory plant response rating (morningglory; [5])
40: Cocklebur plant response rating (cocklebur; [4]) | Blackgrass plant response rating (blackgrass; [4])
60: Pigweed plant response rating (pigweed; [5]) | Rice plant response rating (rice)
0: Plant response rating (0 to 100 scale), Cocklebur (cocklebur; [6])
100: Plant response rating (0 to 100 scale), Pigweed (pigweed; [6]) | Wheat plant response rating (wheat; 500 g ai/ha, scale 0 to 100, 0 no effect, 100 complete control, preemergence) | Plant response rating (0 to 100 scale), Lambsquarters (lambsquarters; [6])
70: Pigweed plant response rating (pigweed; [4]) | Sedge, Umbrella plant response rating [1] | Lambsquarters plant response rating (lambsquarters; [5]) | Plant response rating (0 to 100 scale), Corn (corn; [6])

CCn1nc(C(C)(C)C)cc1C(=O)Nc1nc(C(=O)N2CC=CC2)ccc1F [Compound 281]
20: Velvetleaf plant response rating (velvetleaf; [10]) | Cocklebur plant response rating (cocklebur; [9]) | Cocklebur plant response rating (cocklebur; [10]) | Pigweed plant response rating (pigweed; [9]) | Blackgrass plant response rating (blackgrass; [9]) | Lambsquarters plant response rating (lambsquarters; [9]) | Oat, Wild plant response rating (wild oat; [10]) | Barnyardgrass plant response rating (0 to 100 scale) (barnyardgrass [3]; [7]) | Plant response rating, Morningglory (morningglory; [8])
100: Pigweed plant response rating (0 to 100 scale) (pigweed; [7]) | Plant response rating, Pigweed (pigweed; [8]) | Plant response rating, Lambsquarters (lambsquarters; [8])
90: Lambsquarters plant response rating (0 to 100 scale) (lambsquarters; [7]) | Plant response rating, Barnyardgrass (barnyardgrass [3]; [8])
60: Plant response rating, Foxtail, Giant (giant foxtail; [8])
70: Plant response rating, Velvetleaf (velvetleaf; [8]) | Sedge, Umbrella plant response rating [1] | Barnyardgrass plant response rating (barnyardgrass [2]) | Rice plant response rating (rice)
30: Pigweed plant response rating (pigweed; [10]) | Blackgrass plant response rating (blackgrass; [10]) | Wheat plant response rating (wheat; [9]) | Wheat plant response rating (wheat; [10]) | Lambsquarters plant response rating (lambsquarters; [10])
10: Velvetleaf plant response rating (0 to 100 scale) (velvetleaf; [7]) | Foxtail, Giant plant response rating (0 to 100 scale) (giant foxtail; [7]) | Foxtail, Giant plant response rating (giant foxtail; [9]) | Foxtail, Giant plant response rating (giant foxtail; [10]) | Oat, Wild plant response rating (wild oat; [9]) | Corn plant response rating (corn; [10]) | Morningglory plant response rating (morningglory; [10])
0: Velvetleaf plant response rating (velvetleaf; [9]) | Cocklebur plant response rating (0 to 100 scale) (cocklebur; [7]) | Plant response rating, Cocklebur (cocklebur; [8]) | Corn plant response rating (0 to 100 scale) (corn; [7]) | Plant response rating, Corn (corn; [8]) | Corn plant response rating (corn; [9]) | Barnyardgrass plant response rating (barnyardgrass [3]; [9]) | Barnyardgrass plant response rating (barnyardgrass [3]; [10]) | Morningglory plant response rating (0 to 100 scale) (morningglory; [7]) | Morningglory plant response rating (morningglory; [9])
80: Ducksalad plant response rating (ducksalad)

CCn1nc(C(C)(C)C)cc1C(=O)Nc1cc(OC(F)(F)F)ccc1F [Compound 338]
10: Cocklebur plant response rating (cocklebur; [11]) | Cocklebur plant response rating (cocklebur; [10]) | Wheat plant response rating (wheat; [10]) | Lambsquarters plant response rating (lambsquarters; [11]) | Plant response rating (0 to 100 scale), Corn (corn; [6]) | Corn plant response rating (corn; [11]) | Plant response rating, Corn (corn; [8]) | Plant response rating, Morningglory (morningglory; [8])
40: Blackgrass plant response rating (blackgrass; [10]) | Barnyardgrass plant response rating (barnyardgrass [2]) | Oat, Wild plant response rating (wild oat; [10]) | Barnyardgrass plant response rating (barnyardgrass [3]; [10])
30: Plant response rating (0 to 100 scale), Foxtail, Giant (giant foxtail; [6]) | Foxtail, Giant plant response rating (giant foxtail; [10]) | Rice plant response rating (rice)
0: Plant response rating (0 to 100 scale), Cocklebur (cocklebur; [6]) | Plant response rating, Cocklebur (cocklebur; [8]) | Wheat plant response rating (wheat; [11]) | Oat, Wild plant response rating (wild oat; [11]) | Plant response rating (0 to 100 scale), Morningglory (morningglory; [6])
100: Plant response rating, Pigweed (pigweed; [8]) | Plant response rating, Lambsquarters (lambsquarters; [8]) | Plant response rating, Foxtail, Giant (giant foxtail; [8]) | Morningglory plant response rating (morningglory; [10])
50: Velvetleaf plant response rating (velvetleaf; [10]) | Lambsquarters plant response rating (lambsquarters; [10])
60: Pigweed plant response rating (pigweed; [11]) | Ducksalad plant response rating (ducksalad) | Plant response rating (0 to 100 scale), Lambsquarters (lambsquarters; [6]) | Morningglory plant response rating (morningglory; [11])
70: Plant response rating (0 to 100 scale), Pigweed (pigweed; [6])
80: Pigweed plant response rating (pigweed; [10]) | Sedge, Umbrella plant response rating [1] | Plant response rating, Barnyardgrass (barnyardgrass [3]; [8])
20: Velvetleaf plant response rating (velvetleaf; [11]) | Blackgrass plant response rating (blackgrass; [11]) | Foxtail, Giant plant response rating (giant foxtail; [11]) | Corn plant response rating (corn; [10]) | Plant response rating (0 to 100 scale), Barnyardgrass (barnyardgrass [3]; [6]) | Barnyardgrass plant response rating (barnyardgrass [3]; [11])
